# Reference: US10464957B2, “Oxidized lipids and methods of use thereof” (Vascular Biogenics Ltd., priority 2014, dated 2019)
# How the values were obtained:
# [1] = molecular target: T1, TLR4 complex (Homo sapiens, UniProt O00206+Q9Y6Y9); assay: LPS binding inhibition assay (biotin-LPS, FACS); settings: biotin-LPS 100 ng/ml, FACS
# T1 construct: endogenous in cells; probably the human primary monocytes of b454
# Method: To assess interference with lipopolysaccharide (LPS) binding, VB-201 or VB-703 were incubated for 20 min with cells (10^6/ml) after which 100 ng/ml of biotin-LPS (InvivoGen) was added for an additional 15 minutes, all at 4° C. Cells were washed, resuspended in FACS buffer and analyzed on a FACS-Calibur device.
# [2] = system: human monocytes (primary CD14+); assay: Chemokine-induced cell migration trans-well assay; format: cell-based; settings: RANTES 100 ng/ml and MCP-1 50 ng/ml, 2-4 hours, FACS count
# Method: Venous blood samples were obtained from healthy male donors in compliance with the Institutional Review Board at the Sheba Medical Center, Ramat Gan, Israel. PBMCs were isolated on Ficoll-Paque PLUS (GE Healthcare, Uppsala, Sweden) using 50 ml Leucosep tubes (Greiner Bio-One, Frickenhausen, Germany). Cells were washed in PBS (Kibbutz Beit Haemek, Israel) and incubated at 4° C. for 15 minutes in a buffer containing PBS and 0.5% bovine serum albumin (BSA) with human CD14 microbeads (Miltenyi Biotec, Bergisch Gladbach, Germany).
# Cells (10^6/ml) were pretreated for 20 min with VB-201 or VB-701 at the doses indicated in FIG. 5, or with solvent (Sol).
# To test for chemokine-induced cell migration, RANTES (100 ng/ml; Cat. No. 300-06, PeproTech, Israel) and MCP-1 (50 ng/ml; Cat. No. 300-04, PeproTech, Israel) were dissolved in RPMI-1640 medium supplemented with 0.5% fetal bovine serum (FBS) and placed at the lower chamber of QCM 24-well, […], migration assay plates (Corning-Costar, Corning, N.Y.). Cells (3×10^5) were seeded in the upper chamber and incubated for 2-4 hours. Subsequently, the number of cells which migrated to the lower compartment was determined by fluorescence-activated cell sorting (FACS).
# [3] = system: NASH-induced mice; assay: NASH and liver fibrosis mouse model (STZ + HFD), liver histology; format: in vivo; settings: VB-703 4 mg/kg, telmisartan 10 mg/kg, once daily for three weeks
# Method: Neonatal male mice exposed to low-dose streptozotocin (STZ) develop liver steatosis with diabetes. Continuous high fat diet (HFD) increases lobular inflammation with foam cell-like macrophages, showing nonalcoholic steatohepatitis (NASH) pathology. NASH was induced in 40 male mice by a single subcutaneous injection of 200 μg per mouse of STZ two days after birth and feeding HFD [57 kcal % fat]) from four weeks of age. Vehicle, VB-703 (4 mg/kg), or telmisartan (10 mg/kg) as positive control, were administered once daily for three weeks, starting from six weeks of age. Mice were sacrificed at nine weeks of age.
# Liver pathology was used to determine the effect of VB-703 on liver inflammation and fibrosis. Histology slides were stained with hematoxylin/eosin (H&E) to assess inflammation. The inflammation score was determined as follows:
# Histology slides were stained with Sirius red to determine collagen content as a marker for the extent of fibrosis.
# [4] = system: nephrectomized rats; assay: 5/6 nephrectomy chronic renal disease rat model (focal and segmental glomerulosclerosis); format: in vivo, Sprague Dawley (SD) Rats; settings: VB-703 4 mg/kg
# Method: Male Sprague Dawley (SD) Rats (Harlan Laboratories, Israel) with an initial weight of 200 g were housed 2-3 per cage in IVC cages in dedicated HVAC (heat, ventilation, air conditioning animal facility at a temperature of 22±2° C. and RH (relative humidity) of 55±15%). Temperature and humidity were monitored continuously. The facility had no exposure to outside light and was maintained on automatic alternating cycles of 12 hours of light and 12 hours of dark. Animals were provided with a commercial rodent diet (Harlan Teklad TRM Rat/Mouse Diet) ad libitum and allowed free access to autoclaved water, supplied to each cage via polysulphone bottles with stainless steel sipper tubes. All animal work was approved by the Animal Care and Use Committee of Israel (IL-13-03-027).
# Rats were divided into three groups: (1) Healthy rats (n=3) in group A, (2) Sham group—subjected to chirurgical process but without kidney mass reduction (n=3) in group B, and (3) the rest were induced with chronic renal failure (n=32). Chronic renal failure was induced by a two stage (5/6) nephrectomy (Nx), with subtraction firstly of about ⅔ of the left kidney by left flank incision and, one week later, complete removal of the right kidney. General anesthesia consisted of intraperitoneal injection of ketamine 100 mg/kg and xylazine 20 mg/kg (0.85 ml ketamine+0.15 ml xylazine for each ml preparation; 1 μl/g BW was injected I.P).
# One week following the second surgery, rats were randomly assigned to the following experimental groups:
# Nephrectomized, orally administered with VB-703 4 mg/kg (n=8); and
# Nephrectomized, orally administered with telmisartan 10 mg/kg as positive control (n=8).
# Body weight (BW) was monitored throughout the study and rats were treated by oral gavage according to their body weight for 7 weeks. Rats were sacrificed by CO2 inhalation 8 weeks from removal of the right kidney (2nd surgery).
# Proteinuria and albuminuria was determined in urine specimens, collected during a 24-hour period, from animals housed in cages at 4 weeks (3 w of treatment) and 8 weeks (7 w of treatment) after the subtotal nephrectomy (2nd surgery). Urine samples were analyzed for: glucose, urea, sodium, potassium, creatinine, total protein, and albumin.
# Upon sacrifice, at 8 weeks, kidneys were collected, weighed and fixed in 4% formaldehyde.
# For light microscopy, paraffin-embedded tissue slides of 4 μm were stained with Periodic Acid-Schiff (PAS) reagent, Masson's Trichrome and Hematoxylin & Eosin.
# Glomerular sclerosis index. Glomerulosclerosis was assessed by PAS-stained sections using a semiquantitative scoring system. The extent of glomerulosclerosis was evaluated by examining mostly 100 randomly selected glomeruli at a magnification of ×400 and applying a score system according to the percentage of sclerosed glomerular area. The score was graded from 0 to 4: (0=0% area; 1=1-25%; 2=26-50%, 3=51-75%, 4=76% and above). The mean of all scored glomeruli was presented. Moreover, the extent of global and segmental glomerulosclerosis was evaluated in the same glomeruli, where <80% sclerosis was referred to as segmental and >80% was referred to as global.
# Glomerular area. The glomerular area of mostly 100 randomly selected glomeruli at a magnification of ×100 was quantitated by counting squares covered by glomeruli area using a grid and the mean glomeruli area was calculated.
# Renal tissues were fixed in 4% formaldehyde and embedded in paraffin. The paraffin-embedded tissues were then cut to form tissue slides of 4 μm. Immunohistochemistry of the paraffin-embedded tissue slides was analyzed using antibodies in the following concentration: monoclonal mouse anti rat CD-68 (ED-1, Serotec MCA341) 1:25. For quantitation of interstitial CD68+ staining, the number of positive cells was counted in 20 randomly selected non-overlapping fields per animal, and the mean value was presented. […]
# [5] = system: kidney of nephrectomized rats; assay: Real-time PCR of pro-fibrotic markers in kidney of nephrectomized rats; format: in vivo, Sprague Dawley (SD) Rats
# Method: Kidney RNA was extracted with an RNeasy Fibrous Tissue Mini kit (Qiagen) and after DNAse I treatment, single-stranded cDNA was synthesized from 2 μg total RNA using the qScript cDNA Synthesis Kit (Quanta Biosciences) and diluted for real-time PCR. The expression of collagen 4α, fibronectin and TGFβ was quantified using the 7300 Real Time PCR System (Applied Biosystems). The assay was performed according to manufacturer instructions using the primers (Assay ID) represented at the table below supplied by Applied Biosystems. Data were normalized to the reference gene TATA box Binding Protein (TBP) and presented as relative mRNA levels compared with Sham PBS 0.5% Eth treatment (Table 1).
# [6] = Nx rats, Telmisartan 10 mg/kg, 8 weeks, Mean ± S.E
# [7] = telmisartan 10 mg/kg, oral 7 weeks, vs Nx PBS 0.5% Eth
# [8] = compared to Nx PBS 0.5% Eth treatment, VB-703 4 mg/kg, telmisartan 10 mg/kg
# [9] = normalized to TBP, relative to Sham PBS 0.5% Eth, mean±SEM
# T1 sequence (O00206 24-839): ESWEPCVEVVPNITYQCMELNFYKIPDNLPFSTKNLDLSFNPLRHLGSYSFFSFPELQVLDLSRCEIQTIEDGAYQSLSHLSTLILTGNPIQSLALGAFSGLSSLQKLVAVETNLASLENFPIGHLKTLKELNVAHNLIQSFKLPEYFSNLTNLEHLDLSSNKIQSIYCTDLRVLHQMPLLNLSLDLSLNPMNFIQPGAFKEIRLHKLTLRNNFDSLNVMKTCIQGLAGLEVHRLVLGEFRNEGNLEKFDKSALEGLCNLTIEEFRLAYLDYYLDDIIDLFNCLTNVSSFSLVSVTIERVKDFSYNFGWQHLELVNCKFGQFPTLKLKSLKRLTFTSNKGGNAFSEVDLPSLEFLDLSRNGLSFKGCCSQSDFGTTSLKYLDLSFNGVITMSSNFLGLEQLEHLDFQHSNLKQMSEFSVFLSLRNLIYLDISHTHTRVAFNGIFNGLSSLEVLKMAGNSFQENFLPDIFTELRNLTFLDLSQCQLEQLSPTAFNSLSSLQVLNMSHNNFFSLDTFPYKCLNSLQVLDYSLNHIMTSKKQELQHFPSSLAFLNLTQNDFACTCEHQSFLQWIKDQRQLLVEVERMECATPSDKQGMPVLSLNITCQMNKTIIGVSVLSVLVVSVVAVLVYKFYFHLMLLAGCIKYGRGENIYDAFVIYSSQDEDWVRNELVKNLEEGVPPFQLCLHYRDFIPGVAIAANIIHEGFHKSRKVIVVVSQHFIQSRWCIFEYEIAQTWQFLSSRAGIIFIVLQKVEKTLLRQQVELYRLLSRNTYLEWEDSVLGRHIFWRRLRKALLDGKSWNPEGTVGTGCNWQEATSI
# T1 sequence (Q9Y6Y9 17-160 limits assumed): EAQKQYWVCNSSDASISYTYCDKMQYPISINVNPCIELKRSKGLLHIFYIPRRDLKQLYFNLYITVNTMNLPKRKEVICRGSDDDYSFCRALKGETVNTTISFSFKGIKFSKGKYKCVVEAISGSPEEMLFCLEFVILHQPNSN
SMILES,LPS-biotin binding to human monocytes (primary CD14+) [1],chemokine-induced migration of human monocytes [2],decrease of liver fibrosis compared to vehicle treated mice (Sirius red) [3] [%],"Glomerular sclerosis Global % [4, 6] [%]","Glomerular sclerosis Global & Segmental % [4, 6] [%]","Glomerular sclerosis Segmental % [4, 6] [%]","glomerular and interstitial monocyte/macrophage infiltration (CD68 positive cells) ([4]; telmisartan 10 mg/kg, 8 weeks)","reduction of damaged glomeruli percent [4, 7] [%]","reduction of sclerotic glomeruli [4, 7] [%]","reduction of Collagen IV expression [5, 8] [%]","reduction of TGF-β expression [5, 8] [%]","reduction of fibronectin expression [5, 8] [%]","Collagen IV mRNA expression (relative mRNA level) [5, 9]","TGF-β mRNA expression (relative mRNA level) [5, 9]","fibronectin mRNA expression (relative mRNA level) [5, 9]"
"CCCCCCCCCCCCCCCCOCC(COP(=O)([O-])OCC[n+]1ccccc1)OCCCCC(=O)OC (stereo not drawn) [VB-704, 1-hexadecyl-2-(4′-carboxymethyl)butyl-glycero-sn-3-phosphoric acid pyridiniumethyl ester]",does not inhibit,inhibits,–,–,–,–,–,–,–,–,–,–,–,–,–
"CCCc1nc2c(C)cc(-c3nc4ccccc4n3C)cc2n1Cc1ccc(-c2ccccc2C(=O)O)cc1 [telmisartan, reference compound]",–,–,47,1.9 ± 1.60,21.0 ± 5.45,19.1 ± 4.30,did not produce a significant effect,31,57,41,44,23,4.4±0.23,4.7±0.52,9.8±2.09
